Measurements reported in ChEMBL document CHEMBL5550170, “Discovery of novel benzimidazole derivatives as selective and reversible monoamine oxidase B inhibitors for Parkinson's disease treatment” (Eur J Med Chem, 2024).

Experiments:
[1] = biological target: T1, Amine oxidase [flavin-containing] B (Homo sapiens, UniProt P27338); conditions: 0.5 h, read-out: INH
T1 sequence (P27338 whole entry): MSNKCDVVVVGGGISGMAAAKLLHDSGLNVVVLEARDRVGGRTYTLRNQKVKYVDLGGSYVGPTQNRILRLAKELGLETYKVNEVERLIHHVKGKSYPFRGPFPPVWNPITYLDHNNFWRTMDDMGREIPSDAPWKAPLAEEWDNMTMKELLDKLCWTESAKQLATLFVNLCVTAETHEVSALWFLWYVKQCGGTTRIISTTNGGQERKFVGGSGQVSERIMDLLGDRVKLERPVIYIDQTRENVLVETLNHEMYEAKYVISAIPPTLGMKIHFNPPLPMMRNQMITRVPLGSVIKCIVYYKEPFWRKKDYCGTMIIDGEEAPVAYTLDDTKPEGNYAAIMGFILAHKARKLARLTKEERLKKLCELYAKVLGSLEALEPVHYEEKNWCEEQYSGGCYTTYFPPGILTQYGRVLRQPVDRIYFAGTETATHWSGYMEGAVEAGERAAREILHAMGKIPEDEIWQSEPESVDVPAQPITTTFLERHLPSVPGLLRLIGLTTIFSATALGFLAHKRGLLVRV
Description: Inhibition of human MAO-B at 1 uM preincubated with compound for 10 mins followed by substrate addition and measured after 30 mins relative to control

[2] = biological target: T1, Amine oxidase [flavin-containing] B
Description: Inhibition of human MAO-B preincubated with compound for 10 mins followed by substrate addition and measured after 30 mins

[3] = biological target: T2, Amine oxidase [flavin-containing] A (Homo sapiens, UniProt P21397)
T2 sequence (P21397 whole entry): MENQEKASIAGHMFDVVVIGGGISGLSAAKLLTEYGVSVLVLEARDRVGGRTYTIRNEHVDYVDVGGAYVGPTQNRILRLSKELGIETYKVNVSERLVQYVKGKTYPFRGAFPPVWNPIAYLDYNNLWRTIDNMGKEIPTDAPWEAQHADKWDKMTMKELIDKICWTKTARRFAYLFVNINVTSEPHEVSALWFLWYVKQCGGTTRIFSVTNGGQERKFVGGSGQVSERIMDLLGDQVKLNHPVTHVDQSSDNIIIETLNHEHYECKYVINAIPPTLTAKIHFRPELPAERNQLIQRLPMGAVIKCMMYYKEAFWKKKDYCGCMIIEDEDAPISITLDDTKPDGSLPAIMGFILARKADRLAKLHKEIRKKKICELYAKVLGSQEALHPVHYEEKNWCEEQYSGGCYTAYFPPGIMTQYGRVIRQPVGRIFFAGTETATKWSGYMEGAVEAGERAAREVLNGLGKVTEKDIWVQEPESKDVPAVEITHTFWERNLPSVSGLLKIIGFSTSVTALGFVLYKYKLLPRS
Description: Inhibition of human MAO-A preincubated with compound for 10 mins followed by substrate addition and measured after 30 mins

SMILES | inhibition at 1 µM [1] | IC50 [2] | IC50 [3]
Cc1ccc(COc2ccc3[nH]c(CC(N)=O)nc3c2)cc1 | 8.29% | – | –
NC(=O)Cc1nc2cc(OCc3ccccc3F)ccc2[nH]1 | 10.1% | – | –
NC(=O)Cc1nc2cc(OCc3cccc(Cl)c3)ccc2[nH]1 | 67.3% | 292 nM | –
COc1ccc2[nH]c(CC(N)=O)nc2c1 | 0.93% | – | –
NC(=O)Cc1nc2cc(OCc3cccc(F)c3)ccc2[nH]1 | 67.5% | 126 nM | 49900 nM
COc1cccc(COc2ccc3[nH]c(CC(N)=O)nc3c2)c1 | 5.84% | – | –
Cc1cccc(COc2ccc3[nH]c(CC(N)=O)nc3c2)c1 | 52.7% | 614 nM | –
COc1ccccc1NC(=O)c1ccc2[nH]c(CC(N)=O)nc2c1 | 24.8% | – | –
NC(=O)Cc1nc2cc(OCc3ccc(Cl)cc3)ccc2[nH]1 | 58.5% | 443 nM | 31300 nM
C#CCN(C)Cc1ccccc1 [PARGYLINE] | 62.9% | – | –
NC(=O)Cc1nc2cc(OCc3ccccc3)ccc2[nH]1 | 14.3% | – | –
Cc1ccccc1COc1ccc2[nH]c(CC(N)=O)nc2c1 | 5.6% | – | –
NC(=O)Cc1nc2cc(OCc3ccc(C(F)(F)F)cc3)ccc2[nH]1 | 52.2% | 161 nM | –
NC(=O)Cc1nc2cc(OCc3ccccc3Cl)ccc2[nH]1 | 8.15% | – | –
Cc1nc2cc(OCc3cccc(F)c3)ccc2[nH]1 | 2.8% | – | –

Results, then the molecule that gave them:

inhibition at 1 µM [1] | IC50 [2] | IC50 [3] | SMILES
34.6% | – | – | COc1cccc(NC(=O)c2ccc3[nH]c(CC(N)=O)nc3c2)c1
28.5% | – | – | COc1ccc(NC(=O)c2ccc3[nH]c(CC(N)=O)nc3c2)cc1
29.9% | – | – | NC(=O)Cc1nc2cc(C(=O)Nc3ccccc3)ccc2[nH]1
44% | – | – | NC(=O)Cc1nc2cc(C(=O)Nc3ccccc3F)ccc2[nH]1
38.4% | – | – | NC(=O)Cc1nc2cc(C(=O)Nc3ccc(Cl)cc3)ccc2[nH]1
29.6% | – | – | Cc1ccc(NC(=O)c2ccc3[nH]c(CC(N)=O)nc3c2)cc1
44.4% | – | – | NC(=O)Cc1nc2cc(C(=O)Nc3ccc(F)cc3)ccc2[nH]1
31.8% | – | – | Cc1ccccc1NC(=O)c1ccc2[nH]c(CC(N)=O)nc2c1
27.2% | – | – | Cc1cccc(NC(=O)c2ccc3[nH]c(CC(N)=O)nc3c2)c1C
47.6% | – | – | NC(=O)Cc1nc2cc(C(=O)Nc3cccc(Cl)c3)ccc2[nH]1
31.3% | – | – | Cc1ccc(NC(=O)c2ccc3[nH]c(CC(N)=O)nc3c2)cc1C
39.6% | – | – | NC(=O)Cc1nc2cc(C(=O)Nc3cccc(F)c3)ccc2[nH]1
33.7% | – | – | Cc1cccc(NC(=O)c2ccc3[nH]c(CC(N)=O)nc3c2)c1
